Assay results reported in patent publication EP0061654A1, “Vincamine cyclamate, process for its preparation and medicaments containing it” (Heinrich Mack Nachf., priority 1981, dated 1982).
Where two headings read alike, the source gives them in different places.

How the values were obtained:
[1] = in Wasser und anderen pharmazeutisch annehmbaren Lösungsmitteln; cited from earlier work
[2] = Solubility in pharmaceutically acceptable solvents; format: physicochemical; conditions: in Wasser, Glycerin/Ethanol-Gemischen oder Ethanol/Wasser-Gemischen

Compound	Löslichkeit [1]	Löslichkeit [2]
CCC12CCCN3CCc4c(n(c5ccccc45)C(O)(C(=O)OC)C1)C32 (centres unmarked) [Vincamin-Base, Vincamin]	praktisch unlöslich	–
Vincamin-cyclamat	–	ausreichend löslich
